Data as given in the NIST ThermoML archive (doi:10.1021/je700205n).

Conditions: Liquid

CCCCCCCn1cc[n+](C)c1.O=S(=O)([N-]S(=O)(=O)C(F)(F)F)C(F)(F)F
mass density [kg/m3]
Conditions	293.15 K	303.15 K	313.15 K	323.15 K	333.15 K	343.15 K	353.15 K	393.15 K
100 kPa	1352	1342	1332	1322	1313	1304	1295	1261
1000 kPa	1353	1343	1333	1323	1314	1304	1296	1262
2000 kPa	1354	1343	1333	1324	1315	1305	1296	1263
3000 kPa	1354	1344	1334	1325	1316	1306	1297	1264
4000 kPa	1355	1345	1335	1325	1317	1307	1298	1265
5000 kPa	1356	1346	1336	1326	1317	1308	1299	1266
7500 kPa	1358	1347	1338	1328	1319	1310	1301	1268
10000 kPa	1359	1349	1339	1330	1321	1312	1303	1271
15000 kPa	1363	1353	1343	1334	1325	1316	1308	1276
20000 kPa	1366	1357	1347	1338	1329	1320	1312	1281
25000 kPa	1370	1360	1351	1342	1333	1324	1316	1285
30000 kPa	1373	1364	1355	1345	1337	1328	1320	1290

CCn1cc[n+](C)c1.F[B-](F)(F)F [1-ethyl-3-methylimidazolium tetrafluoroborate]
mass density [kg/m3]
Conditions	293.15 K	303.15 K	313.15 K	323.15 K	333.15 K	343.15 K	353.15 K	393.15 K
100 kPa	1305	1296	1288	1280	1272	1264	1257	1229
1000 kPa	1305	1296	1288	1280	1272	1265	1257	1230
2000 kPa	1306	1297	1289	1281	1273	1265	1258	1230
3000 kPa	1306	1297	1289	1281	1273	1266	1258	1231
4000 kPa	1307	1298	1290	1282	1274	1266	1259	1231
5000 kPa	1307	1298	1290	1282	1274	1267	1259	1232
7500 kPa	1308	1299	1291	1283	1275	1268	1261	1233
10000 kPa	1309	1300	1292	1284	1277	1269	1262	1235
15000 kPa	1311	1303	1295	1287	1279	1272	1264	1238
20000 kPa	1313	1305	1297	1289	1281	1274	1267	1240
25000 kPa	1316	1307	1299	1291	1284	1277	1269	1243
30000 kPa	1318	1309	1301	1294	1286	1279	1272	1246

CCn1cc[n+](C)c1.O=S(=O)([N-]S(=O)(=O)C(F)(F)F)C(F)(F)F
mass density [kg/m3]
Conditions	293.15 K	303.15 K	313.15 K	323.15 K	333.15 K	343.15 K	353.15 K	393.15 K
100 kPa	1526	1514	1503	1493	1482	1472	1461	1424
1000 kPa	1526	1515	1504	1493	1483	1472	1462	1424
2000 kPa	1527	1516	1505	1494	1483	1473	1463	1425
3000 kPa	1528	1517	1506	1495	1484	1474	1464	1426
4000 kPa	1528	1517	1506	1496	1485	1475	1465	1427
5000 kPa	1529	1518	1507	1496	1486	1476	1466	1428
7500 kPa	1531	1520	1509	1498	1488	1478	1468	1431
10000 kPa	1533	1522	1511	1500	1490	1480	1470	1433
15000 kPa	1536	1525	1515	1504	1494	1484	1474	1438
20000 kPa	1540	1529	1518	1508	1498	1488	1478	1443
25000 kPa	1543	1532	1522	1512	1502	1492	1483	1448
30000 kPa	1547	1536	1526	1516	1506	1496	1487	1453
